Consider 28 compounds from patent US7705029B2 (Synta Pharmaceuticals Corp., priority 2004, dated 2010).

Structures are written as SMILES. Where only a bound is given, the exact number is not on record here.

The first experiment has as its system IL-2 production in a Human Jurkat Cell Line. In words: Inhibition of IL-2 production in PHA-stimulated Jurkat cells (IL-2 ELISA). The format is cell-based. Particulars: Homo sapiens, Jurkat, 20 h, read-out: IC50 (concentration at which IL-2 release is inhibited by 50%). The procedure: Jurkat cells (ATCC, Cat# TIB-152) were grown in RPMI1640 medium (ATCC, Cat# 30-2001) containing 10% of FBS (ATCC, Cat# 30-2020). For compound screening, Jurkat cells were plated in 96-well plates at a density of 0.5 million cells per well in RPMI1640 medium containing 1% of FBS. Then, various concentrations of each test compound were added to the cell plates followed by addition of PHA (Sigma, Cat# L-9017) at a final concentration of 2.5 μg/ml to stimulate IL-2 production. Cells were then incubated at 37° C. (+5% CO2) for 20 hours before ELISA assay. After 20 hours incubation, cell plates were centrifuged at 500-800 g for 5 minutes and the supernatants was collected for IL-2 detection using the human IL-2 ELISA kit purchased from Cell Sciences (Cat# 851.500.020). The ELISA assay for IL-2 production was done in 96-well plates using a protocol provided by Cell Sciences.
The IC50 (i.e., the concentration at which IL-2 release is inhibited by 50%) was determined and the results are shown in the Table. […] The designation “A” means an IC50 less than 0.010 μM; the designation B means an IC50 between 0.010 and 1.0 μM; and the designation “C” mean an IC50 greater than 1 μM.
Regarding `N#C/C(=C\c1ccc(-n2nc(C(F)(F)F)cc2OC(F)F)cc1)c1cccc(F)c1F` [Compound 1], the IC50 was in the range of 0.01 to 1 µM.
Still for that read-out and setting: in the case of `N#CC(=Cc1ccc(-n2nc(C(F)(F)F)cc2OC(F)F)cc1)c1ccccc1F` [Compound 2, 3-[4-(5-Difluoromethoxy-3-trifluoromethyl-pyrazol-1-yl)-phenyl]-2-(2-fluoro-phenyl)-acrylonitrile] it was 0.01 to 1 µM; in that of `N#CC(=Cc1ccc(-n2nc(C(F)(F)F)cc2OC(F)F)cc1)c1cc(F)ccc1F` [Compound 3, 3-[4-(5-Difluoromethoxy-3-trifluoromethyl-pyrazol-1-yl)-phenyl]-2-(2,5-difluoro-phenyl)-acrylonitrile], 0.01 to 1 µM.
In the case of `N#C/C(=C\c1ccc(-n2nc(C(F)(F)F)cc2C(F)(F)F)cc1)c1cccc(F)c1F` [Compound 4, 3-[4-(3,5-Bis-trifluoromethyl-pyrazol-1-yl)-phenyl]-2-(2,3-difluoro-phenyl)-acrylonitrile], the IC50 is below 0.01 µM.
Still for that read-out and setting: in the case of `N#CC(=Cc1ccc(-n2nc(C(F)(F)F)cc2C(F)(F)F)cc1)c1cc(F)ccc1F` [Compound 5, 3-[4-(3,5-Bis-trifluoromethyl-pyrazol-1-yl)-phenyl]-2-(2,5-difluoro-phenyl)-acrylonitrile] it was below 0.01 µM; in that of `N#CC(=Cc1ccc(-n2nc(C(F)(F)F)cc2C(F)(F)F)cc1)c1ccccc1F` [Compound 6, 3-[4-(3,5-Bis-trifluoromethyl-pyrazol-1-yl)-phenyl]-2-(2-fluoro-phenyl)-acrylonitrile], 0.01 to 1 µM; in that of `N#CC(=Cc1ccc(-n2nc(C(F)(F)F)cc2C(F)(F)F)cc1)c1ccc(F)c(F)c1F` [Compound 8, 3-[4-(3,5-Bis-trifluoromethyl-pyrazol-1-yl)-phenyl]-2-(2,3,4-trifluoro-phenyl)-acrylonitrile], 0.01 to 1 µM.
Take `N#CC(=Cc1ccc(-n2nc(C(F)(F)F)cc2C(F)(F)F)cc1)c1c(F)ccc(F)c1F` [Compound 9, 3-[4-(3,5-Bis-trifluoromethyl-pyrazol-1-yl)-phenyl]-2-(2,3,6-trifluoro-phenyl)-acrylonitrile]: the IC50 was below 0.01 µM.
`N#CC(=Cc1ccc(-n2nc(C(F)(F)F)cc2C(F)(F)F)cc1)c1cc(F)c(F)c(F)c1` [Compound 10, 3-[4-(3,5-Bis-trifluoromethyl-pyrazol-1-yl)-phenyl]-2-(3,4,5-trifluoro-phenyl)-acrylonitrile]: the IC50 lay in the range of 0.01 to 1 µM.
The same measure, in the same setting: in the case of `N#CC(=Cc1ccc(-n2nc(C(F)(F)F)cc2C(F)(F)F)cc1)c1cc(F)c(F)cc1F` [Compound 12, 3-[4-(3,5-Bis-trifluoromethyl-pyrazol-1-yl)-phenyl]-2-(3,4,6-trifluoro-phenyl)-acrylonitrile] it was 0.01 to 1 µM; in that of `Cc1cc(C(F)(F)F)n(-c2ccc(/C=C(\C#N)c3cc(F)ccc3F)cc2)n1` [Compound 15, 2-(2,5-Difluoro-phenyl)-3-[4-(3-methyl-5-trifluoromethyl-pyrazol-1-yl)-phenyl]-acrylonitrile], 0.01 to 1 µM; in that of `N#CC(=Cc1ccc(-n2ccc(C(F)(F)F)n2)cc1)c1ccc(F)cc1F` [Compound 16, 2-(2,4-Difluoro-phenyl)-3-[4-(3-trifluoromethyl-pyrazol-1-yl)-phenyl]-acrylonitrile], above 1 µM.
For `Cc1cc(C(F)(F)F)n(-c2ccc(C=C(C#N)c3cccc(F)c3F)cc2)n1` [Compound 18, 2-(2,3-Difluoro-phenyl)-3-[4-(3-methyl-5-trifluoromethyl-pyrazol-1-yl)-phenyl]-acrylonitrile], the IC50 lay within 0.01 to 1 µM.
Consider `Cc1cc(C(F)(F)F)n(-c2ccc(C=C(C#N)c3ccc(F)cc3F)cc2)n1` [Compound 19, 2-(2,4-Difluoro-phenyl)-3-[4-(3-methyl-5-trifluoromethyl-pyrazol-1-yl)-phenyl]-acrylonitrile], for which the IC50 was 0.01 to 1 µM.
On the same count and under the same terms, in the case of `Cc1cc(C(F)(F)F)n(-c2ccc(C=C(C#N)c3c(F)cccc3F)cc2)n1` [Compound 20, 2-(2,6-Difluoro-phenyl)-3-[4-(3-methyl-5-trifluoromethyl-pyrazol-1-yl)-phenyl]-acrylonitrile] it was 0.01 to 1 µM.
The same measure, in the same setting: under `Cc1cc(C(F)(F)F)n(-c2ccc(C=C(C#N)c3ccc(F)c(F)c3)cc2)n1` [Compound 21, 2-(3,4-Difluoro-phenyl)-3-[4-(3-methyl-5-trifluoromethyl-pyrazol-1-yl)-phenyl]-acrylonitrile] stands 0.01 to 1 µM; under `Cc1cc(C(F)(F)F)n(-c2ccc(C=C(C#N)c3cc(F)cc(F)c3)cc2)n1` [Compound 22, 2-(3,5-Difluoro-phenyl)-3-[4-(3-methyl-5-trifluoromethyl-pyrazol-1-yl)-phenyl]-acrylonitrile], 0.01 to 1 µM.
Consider `N#CC(=Cc1ccc(-n2cccn2)cc1)c1ccccc1` [Compound 23, 2-Phenyl-3-(4-pyrazol-1-yl-phenyl)-acrylonitrile], for which the IC50 was above 1 µM.
Consider `N#CC(=Cc1ccc(-n2cccn2)cc1)c1cc(F)ccc1F` [Compound 24, 2-(2,5-Difluoro-phenyl)-3-(4-pyrazol-1-yl-phenyl)-acrylonitrile], for which the IC50 was above 1 µM.
On the same count and under the same terms, under `N#C/C(=C\c1ccc(-n2nc(C(F)(F)F)cc2C(F)(F)F)cc1)C(=O)c1cccc(F)c1F` [Compound 25, 3-[4-(3,5-Bis-trifluoromethyI-pyrazol-1-yl)-phenyl]-2-(2,3-difluoro-benzoyl)-acrylonitrile] stands above 1 µM; under `N#CC(=Cc1ccc(-n2ccc(-c3cccs3)n2)cc1)C(=O)c1ccccc1` [Compound 28, 2-Benzoyl-3-[4-(3-thiophen-2-yl-pyrazol-1-yl)-phenyl]-acrylonitrile], above 1 µM; under `Cc1ccn(-c2ccc(C=C(C#N)C(=O)c3ccco3)cc2)n1` [Compound 29, 2-(Furan-2-carbonyl)-3-[4-(3-methyl-pyrazol-1-yl)-phenyl]-acrylonitrile], above 1 µM.
Still for that read-out and setting: under `N#CC(=Cc1ccc(-n2cccn2)cc1)C(=O)c1ccccc1` [Compound 30, 2-Benzoyl-3-(4-pyrazol-1-yl-phenyl)-acrylonitrile] stands above 1 µM.
For `N#CC(=Cc1ccc(-n2ccc(-c3ccccc3)n2)cc1)C(=O)c1ccco1` [Compound 31, 2-(Furan-2-carbonyl)-3-[4-(3-phenyl-pyrazol-1-yl)-phenyl]-acrylonitrile], the IC50 is above 1 µM.
On the same count and under the same terms, in the case of `N#CC(=Cc1ccc(-n2nc(C(F)(F)F)cc2C(F)(F)F)cc1)C(=O)c1ccco1` [Compound 33, 3-[4-(3,5-Bis-trifluoromethyl-pyrazol-1-yl)-phenyl]-2-(furan-2-carbonyl)-acrylonitrile] it was above 1 µM.
On the same count and under the same terms, under `N#CC(=Cc1ccc(-n2nc(C(F)(F)F)cc2C(F)(F)F)cc1)C(=O)c1ccc(F)cc1F` [Compound 34, 3-[4-(3,5-Bis-trifluoromethyl-pyrazol-1-yl)-phenyl]-2-(2,4-difluoro-benzoyl)-acrylonitrile] stands above 1 µM.

The experiment is the same for the next values; noted with them: Jurkat cells, PHA 2.5 μg/ml, 20 hours incubation, human IL-2 ELISA of supernatant; read-out: IC50 (concentration at which IL-2 release is inhibited by 50%).
Regarding `N#CC(=Cc1ccc(-n2nc(C(F)(F)F)cc2C(F)(F)F)cc1Cl)c1cccc(F)c1F` [Compound 13, 3-[4-(3,5-Bis-trifluoromethyl-pyrazol-1-yl)-2-chloro-phenyl]-2-(2,3-difluoro-phenyl)-acrylonitrile], the IC50 is above 1 µM.
`N#CC(=Cc1ccccc1-n1nc(C(F)(F)F)cc1C(F)(F)F)c1cccc(F)c1F` [Compound 14, 3-[2-(3,5-Bis-trifluoromethyl-pyrazol-1-yl)-phenyl]-2-(2,3-difluoro-phenyl)-acrylonitrile]: the IC50 is above 1 µM.
